The subject of experiment [1] is HeLa. Nature of the experiment: ATP-based viability loss in HeLa cells – cell-based, CellTiter-Glo luminescence, cherry-pick samples, cytotoxicity control for MITF activator project, dose response (AID 540259). It is filed as functional. As to conditions: Homo sapiens.
Experiment [2] relates to H9c2. Briefly: cells. It is filed as functional, cell-based. The conditions noted are these: Rattus norvegicus, H9c2, Myocardium.
Experiment [3] in a line: Luminescence-based cell-based high throughput dose response assay to identify activators of the DAF-12 from the parasite S. stercoralis (ssDAF-12). Type of experiment: functional.
Experiment [4] addresses Glucose-6-phosphate 1-dehydrogenase (Homo sapiens, UniProt P11413). Nature of the experiment: inhibition of Homo sapiens G6PD, dose series – biochemical, fluorescence, selectivity assay for P. falciparum G6PD inhibitor project, dose response (AID 504792). It is filed as functional.
Experiment [5] concerns the target T1, Heat shock factor protein 1 (Mus musculus, UniProt P38532).
T1 sequence (P38532 whole entry): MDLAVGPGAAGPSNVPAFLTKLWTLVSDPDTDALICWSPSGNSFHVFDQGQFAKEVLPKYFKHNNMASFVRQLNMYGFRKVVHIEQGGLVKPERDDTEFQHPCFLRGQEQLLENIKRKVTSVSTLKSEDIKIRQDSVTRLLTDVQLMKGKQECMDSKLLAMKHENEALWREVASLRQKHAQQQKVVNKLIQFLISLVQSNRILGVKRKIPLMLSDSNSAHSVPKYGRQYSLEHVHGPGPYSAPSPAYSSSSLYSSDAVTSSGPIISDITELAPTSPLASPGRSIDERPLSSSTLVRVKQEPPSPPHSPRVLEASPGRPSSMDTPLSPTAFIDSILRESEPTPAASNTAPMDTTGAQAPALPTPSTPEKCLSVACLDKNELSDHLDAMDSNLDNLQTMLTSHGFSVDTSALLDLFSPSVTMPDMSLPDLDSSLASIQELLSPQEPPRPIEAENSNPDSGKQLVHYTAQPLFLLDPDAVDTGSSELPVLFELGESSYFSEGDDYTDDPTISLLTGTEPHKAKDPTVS
Nature of the experiment: enhancement of HSF1-driven luciferase signal – cell-based, NIH3T3, luminescence, dose retest, confirmation (AID 435004).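 Note: stress induced by proteasome inhibitor MG132 added 30 min after compound; luciferase reporter driven by HSF1 response element in NIH3T3 cells; actives raise luminescence as potentiators of the MG132 stress response.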 It is filed as functional.

Experiment [6] concerns Vero. Briefly: viability of Vero cells under compound – cytotoxicity control for flavivirus capping enzyme inhibitors (AID 588742). As to conditions: Chlorocebus sabaeus. It is filed as functional.
Experiment [7] deals with T2, Mitochondrial peptide methionine sulfoxide reductase (Bos taurus, UniProt P54149).
T2 sequence (P54149 whole entry): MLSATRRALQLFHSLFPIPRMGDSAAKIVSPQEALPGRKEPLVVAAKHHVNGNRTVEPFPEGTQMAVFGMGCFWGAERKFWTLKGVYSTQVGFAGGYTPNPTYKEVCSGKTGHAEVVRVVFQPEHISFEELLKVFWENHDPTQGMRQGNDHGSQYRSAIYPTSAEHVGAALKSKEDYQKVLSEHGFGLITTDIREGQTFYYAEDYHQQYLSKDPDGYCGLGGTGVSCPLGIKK
Type of experiment: functional.

Experiment [8] addresses 26S proteasome non-ATPase regulatory subunit 14 (Homo sapiens, UniProt O00487). Nature of the experiment: inhibition of proteasome subunit RPN11 – biochemical, fluorescence polarization, uHTS hits, confirmation (AID 602368). Type of experiment: functional.
Experiment [9] concerns the target 72 kDa type IV collagenase (Homo sapiens, UniProt P08253). Nature of the experiment: Dose Response validation of uHTS RPN11 inhibitor hits using a MMP-2 Fluorescence assay. It is filed as functional.
Experiment [10] deals with Prothrombin (Bos taurus, UniProt P00735). Briefly: thrombin protease inhibitors – biochemical, fluorescence polarization, uHTS hits, dose response (AID 602369). Type of experiment: functional.
Experiment [11] deals with T3, Histone-lysine N-methyltransferase NSD2 (Homo sapiens, UniProt O96028).
T3 sequence (O96028 whole entry): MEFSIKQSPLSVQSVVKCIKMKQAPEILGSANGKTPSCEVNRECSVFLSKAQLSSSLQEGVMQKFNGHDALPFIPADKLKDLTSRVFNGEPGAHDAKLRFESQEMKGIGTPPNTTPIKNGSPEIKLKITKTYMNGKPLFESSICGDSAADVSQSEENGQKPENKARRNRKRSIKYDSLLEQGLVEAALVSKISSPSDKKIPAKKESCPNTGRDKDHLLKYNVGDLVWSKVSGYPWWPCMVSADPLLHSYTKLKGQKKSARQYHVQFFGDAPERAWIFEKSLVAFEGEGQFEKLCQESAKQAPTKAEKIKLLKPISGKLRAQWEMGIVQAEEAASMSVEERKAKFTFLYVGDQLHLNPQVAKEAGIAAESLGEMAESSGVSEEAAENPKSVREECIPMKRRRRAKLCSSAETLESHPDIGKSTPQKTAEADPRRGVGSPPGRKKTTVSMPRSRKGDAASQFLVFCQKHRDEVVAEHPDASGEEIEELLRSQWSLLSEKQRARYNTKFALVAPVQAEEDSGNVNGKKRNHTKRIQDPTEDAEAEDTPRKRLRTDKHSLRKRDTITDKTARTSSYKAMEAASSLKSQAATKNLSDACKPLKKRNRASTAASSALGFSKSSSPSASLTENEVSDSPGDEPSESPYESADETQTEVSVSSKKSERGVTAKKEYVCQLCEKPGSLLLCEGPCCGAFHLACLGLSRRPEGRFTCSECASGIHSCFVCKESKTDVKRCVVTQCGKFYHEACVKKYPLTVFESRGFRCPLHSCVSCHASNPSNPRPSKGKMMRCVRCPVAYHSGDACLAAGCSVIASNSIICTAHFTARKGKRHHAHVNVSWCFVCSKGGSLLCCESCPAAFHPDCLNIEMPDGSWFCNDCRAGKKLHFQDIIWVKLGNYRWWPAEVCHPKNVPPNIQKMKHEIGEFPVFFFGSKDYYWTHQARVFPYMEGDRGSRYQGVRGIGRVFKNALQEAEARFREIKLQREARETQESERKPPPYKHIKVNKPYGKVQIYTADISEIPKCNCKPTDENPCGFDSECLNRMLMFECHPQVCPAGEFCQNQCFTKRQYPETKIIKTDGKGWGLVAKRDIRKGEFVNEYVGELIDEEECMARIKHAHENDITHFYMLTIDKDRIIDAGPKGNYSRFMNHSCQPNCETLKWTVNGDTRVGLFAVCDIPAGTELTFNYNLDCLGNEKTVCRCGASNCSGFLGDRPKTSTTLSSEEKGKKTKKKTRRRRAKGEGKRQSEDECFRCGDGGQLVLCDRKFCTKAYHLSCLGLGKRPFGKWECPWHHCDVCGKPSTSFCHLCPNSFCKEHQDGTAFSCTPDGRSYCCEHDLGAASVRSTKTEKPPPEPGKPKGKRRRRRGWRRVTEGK
It is filed as biochemical.

For experiment [12], the target named is Keap1/Nrf2 (Homo sapiens, UniProt Q14145). Nature of the experiment: disruptors of Keap1 binding to Nrf2 peptide – biochemical, fluorescence polarization, cherry-picked samples, dose response (AID 588683). Background: Polarisation of emitted light reports the rotation of a fluorescent probe.
Experiment [13] addresses Luciferin 4-monooxygenase (Photinus pyralis, UniProt P08659). Nature of the experiment: inhibition of purified Photinus pyralis luciferase – biochemical, luminescence, dose response (AID 1891).
Experiment [14] in a line: Luminescence Cell-Based Dose Confirmation HTS to Identify Inhibitors of Platelet Dense Granule Release. [Related pubchem assays: 1663 (Primary HTS), 1678 (Summary of Project)]. It is filed as functional.
Experiment [15] has as its target T4, Hexokinase HKDC1 (Homo sapiens, UniProt Q2TB90).
T4 sequence (Q2TB90 whole entry): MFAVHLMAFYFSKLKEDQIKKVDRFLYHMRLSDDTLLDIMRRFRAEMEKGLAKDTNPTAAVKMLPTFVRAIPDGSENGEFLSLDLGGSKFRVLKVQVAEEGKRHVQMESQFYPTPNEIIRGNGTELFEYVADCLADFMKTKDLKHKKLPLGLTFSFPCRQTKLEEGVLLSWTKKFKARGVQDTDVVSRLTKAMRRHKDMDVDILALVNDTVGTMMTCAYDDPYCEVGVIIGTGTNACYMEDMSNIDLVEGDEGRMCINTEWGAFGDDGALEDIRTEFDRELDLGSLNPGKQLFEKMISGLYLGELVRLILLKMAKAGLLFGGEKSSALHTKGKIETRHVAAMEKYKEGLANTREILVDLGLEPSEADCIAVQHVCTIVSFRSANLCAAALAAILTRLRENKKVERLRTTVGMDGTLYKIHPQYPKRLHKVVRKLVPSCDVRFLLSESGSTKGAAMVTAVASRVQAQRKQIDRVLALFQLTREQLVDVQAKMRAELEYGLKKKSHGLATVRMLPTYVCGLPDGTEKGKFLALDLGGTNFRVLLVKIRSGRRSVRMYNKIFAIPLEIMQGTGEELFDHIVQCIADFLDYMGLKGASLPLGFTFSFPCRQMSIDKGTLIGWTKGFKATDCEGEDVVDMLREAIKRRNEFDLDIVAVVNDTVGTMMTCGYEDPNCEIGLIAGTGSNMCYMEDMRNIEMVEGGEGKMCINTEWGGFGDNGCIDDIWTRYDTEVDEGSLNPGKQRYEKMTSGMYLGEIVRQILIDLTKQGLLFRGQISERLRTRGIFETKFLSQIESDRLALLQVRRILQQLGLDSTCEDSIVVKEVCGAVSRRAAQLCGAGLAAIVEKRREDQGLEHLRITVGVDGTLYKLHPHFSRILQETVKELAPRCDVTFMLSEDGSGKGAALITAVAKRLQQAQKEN
Nature of the experiment: inhibition of HKDC1 glucose phosphorylation – biochemical, W721R variant, dose response (AID 504729). Type of experiment: functional.

The target in experiment [16] is Nonstructural protein 1 (Influenza A virus, UniProt Q194T2). Type of experiment: functional, Influenza A virus (A/California/07/2009(H1N1)).
Experiment [17] concerns the target Genome polyprotein (dengue virus type 2, UniProt P29990). Nature of the experiment: flavivirus cap methylation enzyme inhibition – biochemical, confirmation dose response, primary screen (AID 588689). It is filed as functional.
In experiment [18] the target is T5, Tyrosine-protein phosphatase non-receptor type 7 (Homo sapiens, UniProt P35236).
T5 sequence (P35236 whole entry): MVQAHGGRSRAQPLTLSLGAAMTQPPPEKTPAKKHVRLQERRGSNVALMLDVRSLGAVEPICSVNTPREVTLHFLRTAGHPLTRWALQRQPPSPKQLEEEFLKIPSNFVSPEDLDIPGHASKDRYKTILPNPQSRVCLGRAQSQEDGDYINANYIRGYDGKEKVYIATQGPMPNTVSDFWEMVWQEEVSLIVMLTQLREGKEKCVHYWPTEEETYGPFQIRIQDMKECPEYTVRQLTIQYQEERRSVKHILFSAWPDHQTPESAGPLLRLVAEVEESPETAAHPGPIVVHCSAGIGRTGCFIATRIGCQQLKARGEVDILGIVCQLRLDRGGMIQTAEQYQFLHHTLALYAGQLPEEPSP
Nature of the experiment: redox-active compounds inhibiting HePTP phosphatase – biochemical, fluorescence, mechanism study (AID 2068). It is filed as functional.

Experiment [19] addresses T6, Dual specificity protein phosphatase 6 (Rattus norvegicus, UniProt Q64346).
T6 sequence (Q64346 whole entry): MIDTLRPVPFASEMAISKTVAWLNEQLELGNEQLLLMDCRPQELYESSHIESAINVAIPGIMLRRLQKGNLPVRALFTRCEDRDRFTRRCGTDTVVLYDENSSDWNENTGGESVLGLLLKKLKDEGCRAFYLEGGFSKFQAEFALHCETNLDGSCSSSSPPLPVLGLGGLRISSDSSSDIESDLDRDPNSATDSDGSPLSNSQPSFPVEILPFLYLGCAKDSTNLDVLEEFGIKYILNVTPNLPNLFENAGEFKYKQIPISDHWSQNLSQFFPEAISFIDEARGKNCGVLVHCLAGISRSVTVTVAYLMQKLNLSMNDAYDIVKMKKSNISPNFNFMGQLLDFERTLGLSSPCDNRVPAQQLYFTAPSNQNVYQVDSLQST
It is filed as functional.

In experiment [20] the target is T7, Dual specificity protein phosphatase 3 (Homo sapiens, UniProt P51452). Nature of the experiment: SAR VHR1 Fluorescent Assay for In Vitro dose response studies. [Related pubchem assays (depositor defined):AID1654, AID1661, AID1878, AID1992, AID2004, AID2070, AID2085]. Type of experiment: functional.
Experiment [21] deals with T7, Dual specificity protein phosphatase 3. Briefly: SAR VHR1 absorbance Assay for In Vitro dose response studies. [Related pubchem assays (depositor defined):AID1654, AID1661, AID1878, AID1992, AID2004].

Activity calls are given as the source filed them.

T7 sequence (P51452 whole entry): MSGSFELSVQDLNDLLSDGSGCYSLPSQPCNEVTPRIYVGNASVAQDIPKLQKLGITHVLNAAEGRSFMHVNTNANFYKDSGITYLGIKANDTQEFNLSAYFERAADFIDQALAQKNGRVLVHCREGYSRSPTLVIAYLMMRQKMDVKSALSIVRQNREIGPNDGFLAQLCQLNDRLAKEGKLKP
Keap1/Nrf2, sequence (Q16236 whole entry): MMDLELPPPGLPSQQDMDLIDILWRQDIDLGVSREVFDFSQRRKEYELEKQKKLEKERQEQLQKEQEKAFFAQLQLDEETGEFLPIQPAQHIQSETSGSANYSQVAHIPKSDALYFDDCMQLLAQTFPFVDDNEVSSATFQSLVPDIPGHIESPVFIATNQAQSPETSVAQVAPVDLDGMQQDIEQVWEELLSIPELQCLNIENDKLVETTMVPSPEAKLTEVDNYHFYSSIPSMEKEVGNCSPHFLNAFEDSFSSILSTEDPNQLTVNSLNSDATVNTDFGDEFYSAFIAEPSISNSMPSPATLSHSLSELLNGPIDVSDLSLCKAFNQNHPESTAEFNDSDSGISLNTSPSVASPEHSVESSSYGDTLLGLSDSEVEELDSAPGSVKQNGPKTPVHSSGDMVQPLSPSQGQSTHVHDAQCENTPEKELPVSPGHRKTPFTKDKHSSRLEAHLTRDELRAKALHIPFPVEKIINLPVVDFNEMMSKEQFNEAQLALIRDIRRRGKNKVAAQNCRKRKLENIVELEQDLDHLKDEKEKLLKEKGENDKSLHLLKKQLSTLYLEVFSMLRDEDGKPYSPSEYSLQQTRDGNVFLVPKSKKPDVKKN
Keap1/Nrf2, sequence (Q14145 whole entry): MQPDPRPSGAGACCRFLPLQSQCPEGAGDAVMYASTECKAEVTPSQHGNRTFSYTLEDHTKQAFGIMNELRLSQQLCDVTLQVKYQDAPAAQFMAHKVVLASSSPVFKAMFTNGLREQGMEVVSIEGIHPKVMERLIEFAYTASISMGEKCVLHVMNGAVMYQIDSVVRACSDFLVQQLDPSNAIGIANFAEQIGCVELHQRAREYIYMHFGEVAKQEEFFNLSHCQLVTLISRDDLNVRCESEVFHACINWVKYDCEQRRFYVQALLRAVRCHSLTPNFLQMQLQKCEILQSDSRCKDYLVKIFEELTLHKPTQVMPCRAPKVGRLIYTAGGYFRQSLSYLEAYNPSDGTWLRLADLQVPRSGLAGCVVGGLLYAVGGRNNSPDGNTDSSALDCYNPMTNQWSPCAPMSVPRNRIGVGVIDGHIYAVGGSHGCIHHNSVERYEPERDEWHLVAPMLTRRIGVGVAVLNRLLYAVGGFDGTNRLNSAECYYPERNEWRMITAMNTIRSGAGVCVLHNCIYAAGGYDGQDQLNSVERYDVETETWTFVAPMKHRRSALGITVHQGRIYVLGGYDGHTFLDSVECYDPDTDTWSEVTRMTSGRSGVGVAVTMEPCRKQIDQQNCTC
Glucose-6-phosphate 1-dehydrogenase, sequence (P11413 whole entry): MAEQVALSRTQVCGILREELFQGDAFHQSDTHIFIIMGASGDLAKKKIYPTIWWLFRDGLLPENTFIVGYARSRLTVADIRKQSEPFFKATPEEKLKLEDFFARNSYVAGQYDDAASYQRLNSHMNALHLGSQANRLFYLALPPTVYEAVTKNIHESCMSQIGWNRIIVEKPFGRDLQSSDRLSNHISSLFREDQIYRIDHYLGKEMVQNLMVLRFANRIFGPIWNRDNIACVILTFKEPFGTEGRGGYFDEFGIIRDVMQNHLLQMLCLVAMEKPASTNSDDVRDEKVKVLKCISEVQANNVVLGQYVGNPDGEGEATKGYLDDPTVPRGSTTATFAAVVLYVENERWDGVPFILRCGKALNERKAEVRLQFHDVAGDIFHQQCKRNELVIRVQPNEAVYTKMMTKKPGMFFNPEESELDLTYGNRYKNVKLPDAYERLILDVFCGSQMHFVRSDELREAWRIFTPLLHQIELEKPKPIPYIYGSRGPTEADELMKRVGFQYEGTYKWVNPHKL
26S proteasome non-ATPase regulatory subunit 14, sequence (O00487 whole entry): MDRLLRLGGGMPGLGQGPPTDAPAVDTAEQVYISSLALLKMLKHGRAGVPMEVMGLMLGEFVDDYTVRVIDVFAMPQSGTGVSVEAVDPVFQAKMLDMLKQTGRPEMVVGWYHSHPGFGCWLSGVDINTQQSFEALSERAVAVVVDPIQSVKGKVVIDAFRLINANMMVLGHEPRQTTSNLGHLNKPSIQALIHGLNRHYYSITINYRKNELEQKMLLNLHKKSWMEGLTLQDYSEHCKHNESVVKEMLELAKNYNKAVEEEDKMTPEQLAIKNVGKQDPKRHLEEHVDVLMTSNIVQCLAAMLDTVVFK
Nonstructural protein 1, sequence (Q194T2 whole entry): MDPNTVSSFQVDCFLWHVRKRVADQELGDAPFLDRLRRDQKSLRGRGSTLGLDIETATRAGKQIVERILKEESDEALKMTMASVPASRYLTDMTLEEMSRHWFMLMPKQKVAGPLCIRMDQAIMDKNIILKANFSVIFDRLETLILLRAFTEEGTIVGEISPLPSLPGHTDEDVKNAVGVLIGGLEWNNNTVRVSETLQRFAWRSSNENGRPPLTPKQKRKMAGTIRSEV
Luciferin 4-monooxygenase, sequence (P08659 whole entry): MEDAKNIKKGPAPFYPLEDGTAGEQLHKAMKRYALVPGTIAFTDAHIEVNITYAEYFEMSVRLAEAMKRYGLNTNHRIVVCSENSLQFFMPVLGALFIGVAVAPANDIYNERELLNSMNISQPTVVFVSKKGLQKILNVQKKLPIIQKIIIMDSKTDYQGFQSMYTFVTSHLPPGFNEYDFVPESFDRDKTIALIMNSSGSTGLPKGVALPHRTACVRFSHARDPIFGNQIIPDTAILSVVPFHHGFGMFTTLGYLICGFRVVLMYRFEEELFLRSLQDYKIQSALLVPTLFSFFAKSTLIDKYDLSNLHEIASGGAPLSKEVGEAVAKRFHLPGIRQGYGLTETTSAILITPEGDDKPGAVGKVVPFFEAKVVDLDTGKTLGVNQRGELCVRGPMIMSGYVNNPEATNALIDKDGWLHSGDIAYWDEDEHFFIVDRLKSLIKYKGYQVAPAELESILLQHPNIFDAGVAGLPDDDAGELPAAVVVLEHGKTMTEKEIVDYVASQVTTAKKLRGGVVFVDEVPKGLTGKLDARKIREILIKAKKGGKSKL
Genome polyprotein, sequence (P29990 2492-3391 limits assumed): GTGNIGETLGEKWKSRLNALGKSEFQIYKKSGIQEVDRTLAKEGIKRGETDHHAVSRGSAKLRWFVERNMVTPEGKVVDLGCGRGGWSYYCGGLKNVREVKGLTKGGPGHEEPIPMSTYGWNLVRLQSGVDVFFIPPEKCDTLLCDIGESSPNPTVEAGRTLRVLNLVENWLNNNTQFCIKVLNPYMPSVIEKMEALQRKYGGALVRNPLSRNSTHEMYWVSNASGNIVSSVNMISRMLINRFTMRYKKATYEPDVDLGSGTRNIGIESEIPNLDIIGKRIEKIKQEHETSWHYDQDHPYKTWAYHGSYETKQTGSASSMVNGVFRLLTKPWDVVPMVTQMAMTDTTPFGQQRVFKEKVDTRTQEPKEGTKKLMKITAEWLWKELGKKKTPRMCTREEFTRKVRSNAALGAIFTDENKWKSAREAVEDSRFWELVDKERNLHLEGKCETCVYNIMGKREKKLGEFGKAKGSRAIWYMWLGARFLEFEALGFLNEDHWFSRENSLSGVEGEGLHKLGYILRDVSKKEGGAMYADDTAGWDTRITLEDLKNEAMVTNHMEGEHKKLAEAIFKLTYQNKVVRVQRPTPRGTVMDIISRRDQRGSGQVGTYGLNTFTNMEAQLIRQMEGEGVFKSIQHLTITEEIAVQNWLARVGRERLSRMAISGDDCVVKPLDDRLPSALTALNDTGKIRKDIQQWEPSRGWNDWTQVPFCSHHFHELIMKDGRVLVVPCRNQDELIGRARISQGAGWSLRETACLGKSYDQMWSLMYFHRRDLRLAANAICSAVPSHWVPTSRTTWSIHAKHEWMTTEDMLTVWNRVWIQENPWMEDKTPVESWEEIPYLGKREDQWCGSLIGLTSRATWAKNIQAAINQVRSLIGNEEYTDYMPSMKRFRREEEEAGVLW
72 kDa type IV collagenase, sequence (P08253 whole entry): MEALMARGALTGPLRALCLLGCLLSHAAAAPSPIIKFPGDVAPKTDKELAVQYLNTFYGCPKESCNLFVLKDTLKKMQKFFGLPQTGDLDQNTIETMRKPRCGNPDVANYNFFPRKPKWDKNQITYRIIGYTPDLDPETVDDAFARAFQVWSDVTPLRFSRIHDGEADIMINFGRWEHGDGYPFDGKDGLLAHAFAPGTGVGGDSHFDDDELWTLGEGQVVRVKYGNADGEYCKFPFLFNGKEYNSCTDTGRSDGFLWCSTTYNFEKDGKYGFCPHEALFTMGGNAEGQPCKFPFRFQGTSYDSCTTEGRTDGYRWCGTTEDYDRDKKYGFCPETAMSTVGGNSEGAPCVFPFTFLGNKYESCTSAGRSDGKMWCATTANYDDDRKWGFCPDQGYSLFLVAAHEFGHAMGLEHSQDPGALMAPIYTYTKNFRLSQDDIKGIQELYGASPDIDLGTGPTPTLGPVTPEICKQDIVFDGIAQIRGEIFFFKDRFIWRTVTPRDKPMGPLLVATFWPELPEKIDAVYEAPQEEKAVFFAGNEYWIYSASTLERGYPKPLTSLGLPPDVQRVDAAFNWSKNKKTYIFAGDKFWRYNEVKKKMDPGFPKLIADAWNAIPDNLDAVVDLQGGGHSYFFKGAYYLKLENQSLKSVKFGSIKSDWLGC

Usually AC50 stands for the concentration giving half of the maximal activity seen. With `CC(C)(C)C(=O)Nc1nc2cc3c(cc2s1)OCO3`, in experiment [1], the AC50 is 51.9 µM (active).
Broadly, the IC50 is the concentration at which inhibition is half-maximal. By EC50 is commonly meant the concentration needed to bring the measured effect to its halfway point. For orientation: CC50 means the concentration at which the toxic effect on the cells reaches its halfway point. Turning to `N#CC1=C(N)Oc2c(O)cc3ccccc3c2C1c1ccsc1` (stereo not given), the IC50 in experiment [2] was > 79 µM (inactive); in experiment [3], > 67.5 µM (inactive); in [4], > 80 µM (inactive); in experiment [7], 155 µM (inactive). For the same compound, the EC50 in experiment [5] was 41.5 µM (active). In addition, the 50% cytotoxic concentration (CC50) in experiment [6] was > 40 µM (active).
Regarding `C/C(C/C(C)=C1/SC(=S)NC1=O)=C1\SC(=S)NC1=O`, the IC50 in [8] was 43.6 µM (active); in experiment [9] it was 0.302 µM (active); in experiment [10] it was 87.5 µM (active). Further, the concentration at half-maximal activity (AC50) was 7.93 µM (active) in [11] and > 52 µM (inactive) in experiment [12].
`CC1(C)CC(=O)c2c(O)cc(OCc3ccc(Br)cc3)cc2O1`: the half-maximal activity concentration (AC50) in experiment [1] is 70.4 µM (active).
Consider `CSc1nc(N)n2nc(-c3ccc(Cl)cc3)cc2n1`, for which the concentration at half-maximal activity (AC50) in experiment [1] is 71.6 µM (active). Also, the 50% effective concentration (EC50) was 0.464 µM (active) in [13] and 3.88 µM (active) in experiment [14].
For `Cc1ccc(SC2=C(N(C)C)C(=O)c3ccccc3C2=O)cc1`, the half-maximal inhibitory concentration (IC50) in experiment [15] was 6.72 µM (active); in experiment [16], 8.5 µM (active); in experiment [17], 65 µM (active). Besides, the CC50 in [6] was 22.1 µM (active).
In the case of `CC(C)NC(=S)c1cn(CCOc2ccccc2)c2ccccc12`, the IC50 in experiment [18], in experiment [19], in [20] and in [21] was > 100 µM (inactive) in each case.
Take `Cc1cc(C)c(C)c(S(=O)(=O)Nc2cccc(S(=O)(=O)Nc3ccccc3C(=O)O)c2)c1C`: the AC50 in experiment [12] is > 52 µM (inactive).

For the origin of these results see ChEMBL document CHEMBL1201862, “PubChem BioAssay data set” (2004).
